As a reminder, the EC50 is the concentration needed to bring the measured effect to its halfway point.

Each structure is given as a SMILES string. Calls of active or inactive are those of the source.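 Rule for the calls: active = growth-inhibition EC50 no more than tenfold above the top tested dose; inconclusive = flat fit between 30% and 70% inhibition, or unreliable fit; inactive = EC50 more than tenfold above the top tested dose.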

EC50 data for 85 molecules are collected here from PubChem BioAssay AID1959 (Broad Institute, 2009).

The assay concerns E. coli NEB5alpha growth, BacTiter-Glo luminescence, 4 h. Kind of assay: Escherichia coli growth inhibition, dose response, counter-screen for MEX-5/POS-1 RNA-binding inhibitor project, luminescence, NEB5alpha (AID 1959;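 note: pUC19-transformed ampicillin-resistant cells grown in LB with ampicillin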). (In general: A counterscreen serves to expose hits that act by an unwanted route or on another target.)
Turning to `COC(=O)c1cc2n3ccccc3c(C)c(-c3ccccc3)c-2c1C(=O)OC`, the EC50 was > 11 µM (inactive).

Take `Cc1ccc(C(=O)O)cc1-n1c(C)cc(C=O)c1C`: the EC50 is > 11 µM (inactive).

Turning to `O=c1[nH]c2ccc([N+](=O)[O-])cc2nc1/C=C(\O)c1ccccc1`, the EC50 is > 11 µM (inactive).

As to `O=C1/C(=C/c2ccc(Br)cc2)Oc2cc(O)ccc21`, the EC50 was > 11 µM (inactive).

With `COC(=O)C1=COC(C)C2CN3CCc4c([nH]c5cc(OC)c(OC)cc45)C3CC12` (stereo not given), the EC50 was > 11 µM (inactive).

Regarding `Cn1cc(C=C2C(=O)NC(=O)NC2=O)c2ccccc21`, the EC50 was > 11 µM (inactive).

`CCN(CC)CCN=Cc1c(O)n(CCc2ccccc2)c(=O)[nH]c1=O`: the EC50 was > 11 µM (inactive).

As to `CCCCC1=CC2=CC(=O)C(C)(OC(=O)c3cccs3)C(=O)C2=CO1` (stereo not given), the EC50 is > 11 µM (inactive).

As for `COC(=O)c1ccc(C2Nc3ccc(/C(C)=N/NC(=O)C(OC)c4ccccc4)cc3C3C=CCC32)cc1` (stereo not given), the EC50 was > 11 µM (inactive).

On to `COc1cc(C2C(C#N)=C(N)OC3=C2C(=O)CCC3)c([N+](=O)[O-])cc1OC` (stereo not given), for which the EC50 was > 11 µM (inactive).

`CCN(CC)c1ccc(N=Cc2ccc(N(CC)CC)cc2O)cc1`: the EC50 was > 11 µM (inactive).

`CC1CCN(c2nc3ccccc3nc2C(C#N)C(=O)NC2CCCCC2)CC1` (stereo not given): the EC50 is > 11 µM (inactive).

On to `N#CC(C#N)=Cc1ccc(NC(=O)c2ccc(Br)cc2)cc1`, for which the EC50 was > 11 µM (inactive).

For the molecule `Cc1[nH][nH]c(=O)c1/C=N/N1CCOCC1`, the EC50 was > 11 µM (inactive).

With `Cc1cc(NC(=O)/C(C#N)=C/c2ccc(-c3ccc(SC(F)F)cc3)o2)n(-c2ccccc2)n1`, the EC50 is > 11 µM (inactive).

Consider `COc1ccc(OC)c(/C=c2\sc3nc(-c4cccs4)nn3c2=O)c1`, for which the EC50 was > 11 µM (inactive).

For `O=C(OCC(=O)c1ccco1)c1ccc2ncsc2c1`, the EC50 was > 11 µM (inactive).

Regarding `COc1ccc(CCC(=O)Nc2cccc(Cl)c2)cc1`, the EC50 is > 11 µM (inactive).

Regarding `CCOc1cc(/C=C/c2cccc[n+]2C)ccc1OCC(=O)Nc1ccc(C)cc1`, the EC50 is > 11 µM (inactive).

As to `COC(=O)CCCC1=CC2=CC(=O)C(C)(OC(=O)c3ccco3)C(=O)C2=CO1` (stereo not given), the EC50 was > 11 µM (inactive).

With `COc1cc(/C=C2/C(=O)ON=C2C)ccc1OCc1ccccc1F`, the EC50 is > 11 µM (inactive).

Turning to `O=C(NC1CC1)C1Nc2ccc(OC(F)(F)F)cc2C2C=CCC12` (stereo not given), the EC50 was > 11 µM (inactive).

Turning to `CN=c1scc(C)n1/N=C/c1ccc(O)c(O)c1O`, the EC50 was > 11 µM (inactive).

Consider `CCN(CC)c1ccc(/C=c2/sc3nnc(-c4ccccc4C)n3c2=O)cc1`, for which the EC50 was > 11 µM (inactive).

Take `CC1(C)CC(=O)C2=C(C1)OC(/N=C/N1CCOCC1)=C(C#N)C2c1ccccc1` (stereo not given): the EC50 was > 11 µM (inactive).

Consider `CC(C)(C)OC(=O)NCCCCC1=CC2=CC(=O)C(C)(OC(=O)c3cnc4ccccc4n3)C(=O)C2=CO1` (stereo not given), for which the EC50 is > 11 µM (inactive).

As to `COc1ccc(C2C(C#N)=C(N)OC3=C2C(=O)CC(C)C3)c(OC)c1OC` (stereo not given), the EC50 was > 11 µM (inactive).

In the case of `Cc1nc(N2CCN(Cc3ccccc3)CC2)c(C#N)c2c1COC(C)(C)C2`, the EC50 was > 11 µM (inactive).

Consider `CCOC(=O)Cc1nc2ccccc2n(CC#N)c1=O`, for which the EC50 is > 11 µM (inactive).

For the molecule `CCN1C(=O)/C(=C2/C=Cc3ccccc3N2C)OC1=S`, the EC50 is > 11 µM (inactive).

In the case of `O=C(c1cccs1)c1ccc(-c2cccs2)s1`, the EC50 was > 11 µM (inactive).

For `CCOc1ccc(S(=O)(=O)Nc2cc(Sc3ncn[nH]3)c3oc(=O)sc3c2)cc1`, the EC50 was > 11 µM (inactive).

For the molecule `Cc1ccc2[nH]c(=O)c(CN(CCO)Cc3nnnn3CCc3ccccc3)cc2c1`, the EC50 is > 11 µM (inactive).

With `Cc1nc(S/C(=C/c2ccc(-c3cc(Cl)ccc3C)o2)C(=O)O)n[nH]1`, the EC50 was > 11 µM (inactive).

Consider `CC(C)OC(=O)C(C#N)c1nc2ccccc2nc1N1CCCC1` (stereo not given), for which the EC50 was > 11 µM (inactive).

Take `CC1(C)Cc2c(cnn2-c2cccc(F)c2)C(NC(=O)CSc2ccccn2)C1` (stereo not given): the EC50 was > 11 µM (inactive).

For the molecule `CCN(CC)c1ccc(/C=C/C(=O)c2ccc(Br)cc2)cc1`, the EC50 is > 11 µM (inactive).

`CCN(CC)c1ccc(/C=C2\C(=O)NC(=S)N(c3ccc(OC)cc3OC)C2=O)o1`: the EC50 is > 11 µM (inactive).

For `CC1(OC(=O)c2ccc(Cl)nc2)C(=O)C=C2C=C(c3ccsc3)OC=C2C1=O` (stereo not given), the EC50 was > 11 µM (inactive).

For `CC(C)Cc1nn2c(N)c(/C=C3\C=Nc4ccccc43)c(=O)nc2s1`, the EC50 is > 11 µM (inactive).

On to `CC[C@H](C)/C=C(C)/C=C/C1=CC2=C(Cl)C(=O)[C@@](C)(OC(C)=O)C(=O)C2=CO1`, for which the EC50 was > 11 µM (inactive).

Regarding `C=CCn1c(=O)/c(=C\c2ccsc2)s/c1=C(/C#N)C(=O)NCCN1CCOCC1`, the EC50 is > 11 µM (inactive).

Regarding `CCN1C(=C(C#N)C#N)C=Cc2ccccc21`, the EC50 is > 11 µM (inactive).

With `COC(=O)CCC(=O)OC1(C)C(=O)C2=COC(c3ccc(OC)cc3)=CC2=C(Br)C1=O` (stereo not given), the EC50 is > 11 µM (inactive).

In the case of `NC(=O)c1c(NC(=O)c2c(F)cccc2F)sc2c1CCN(Cc1ccccc1)C2`, the EC50 was > 11 µM (inactive).

For the molecule `CC1C2C(C)N(C)C(=O)N(C)C2N(C)C(=O)N1C` (stereo not given), the EC50 was > 11 µM (inactive).

Regarding `COCC1CCN(C(=O)CC2C(=O)NCCN2Cc2cccc(Oc3ccccc3)c2)CC1` (stereo not given), the EC50 is > 11 µM (inactive).

`O=C1c2ccccc2C(=O)c2[nH]cnc21`: the EC50 was > 11 µM (inactive).

With `COCCNC(=O)Cn1cc(/C=C2\C(=O)NC(=O)N(c3ccccc3F)C2=O)c2ccccc21`, the EC50 was > 11 µM (inactive).

As to `COc1cccc(C(=O)NCC(=O)NNc2ncnc(N)c2[N+](=O)[O-])c1`, the EC50 is > 11 µM (inactive).

As to `NC(N)=NS(=O)(=O)c1ccc(NC(=S)NC(=O)/C=C/c2cccs2)cc1`, the EC50 is > 11 µM (inactive).

Consider `CCCCCCn1c(O)c(C=Nc2ccccc2N2CCOCC2)c(=O)[nH]c1=S`, for which the EC50 is > 11 µM (inactive).

Consider `Cc1c(N)cc(N)cc1C(=O)O`, for which the EC50 was > 11 µM (inactive).

On to `N=c1c(S(=O)(=O)c2ccc(Cl)cc2)cc2c(=O)n3ccccc3nc2n1CCc1ccccc1`, for which the EC50 is > 11 µM (inactive).

For `Cn1c(=O)c(-c2cc(=O)[nH][nH]2)c(O)c2ccccc21`, the EC50 is > 11 µM (inactive).

On to `COc1ccc2nc3ccccc3nc2c1NC(=O)c1ccccc1Cl`, for which the EC50 was > 11 µM (inactive).

`CCCCOc1c(Br)cc(/C=N/O)cc1OCC`: the EC50 is > 11 µM (inactive).

`COC(=O)c1cc(C(=O)OC)cc(-n2c(C)cc(C(=O)COC(=O)CNS(=O)(=O)c3ccc(C)cc3)c2C)c1`: the EC50 is > 11 µM (inactive).

As for `COc1ccccc1Oc1cn[nH]c1-c1ccc(OCC(=O)NN)cc1O`, the EC50 is > 11 µM (inactive).

For `Cc1ccc(/C=C2/Sc3ccc(C(=O)N4CCN(c5ccccn5)CC4)cc3NC2=O)cc1`, the EC50 is > 11 µM (inactive).

Regarding `O=C(COC(=O)C1CCCC1)Nc1ncc(Cl)cc1Cl`, the EC50 was > 11 µM (inactive).

With `C=CCSc1nnc(N2C(=O)C(O)=C(C(=O)c3ccco3)C2c2ccccc2F)s1` (stereo not given), the EC50 is > 11 µM (inactive).

With `CCCCCN1C=CC=C/C1=C\C=C(C#N)C#N`, the EC50 was > 11 µM (inactive).

As for `COc1ccc(C2C(C#N)=C(/N=C/N3CCN(C)CC3)OC3=C2C(=O)CC(C)(C)C3)cc1OC` (stereo not given), the EC50 is > 11 µM (inactive).

`CN1C(=O)C(=Cc2ccc(SC3CCCCC3)o2)C(=O)N(C)C1=O`: the EC50 is > 11 µM (inactive).

With `Cc1ccccc1-c1ccc(/C=C2/SC(N3CCOCC3)=NC2=O)o1`, the EC50 is > 11 µM (inactive).

In the case of `Cn1c(O)c(C=Nc2ccc(N3CCOCC3)cc2)c(=O)n(C)c1=S`, the EC50 was > 11 µM (inactive).

On to `Cc1ccc(-n2[nH]c(C)c(/C=N/NC(=O)c3ccc(O)cc3O)c2=O)cc1`, for which the EC50 is > 11 µM (inactive).

Consider `Cc1cc(=O)n2[nH]c(=O)c(N=Nc3ccccc3)c2[nH]1`, for which the EC50 was > 11 µM (inactive).

`Cc1cccn2c(=O)c3cc(C(=O)NCC4CCCO4)c(=N)n(CCc4ccccc4)c3nc12` (stereo not given): the EC50 is > 11 µM (inactive).

As to `Cc1cccn2c(=O)c3cc(C(=O)NCc4ccco4)c(=N)n(C(C)C)c3nc12`, the EC50 is > 11 µM (inactive).

As for `CC(C)(C)C(=O)c1sc2nc(-c3cccs3)cc(C(F)(F)F)c2c1N`, the EC50 is > 11 µM (inactive).

As to `COC(=O)c1ccccc1-n1c(CCC(=O)O)ccc1-c1ccc(F)cc1`, the EC50 is > 11 µM (inactive).

For `Cc1ccc(/C=C2/C(=O)c3ccc(C(=O)O)cc3C2=O)o1`, the EC50 was > 11 µM (inactive).

As for `COc1ccc(/C=C(\C#N)C(=O)NCC2CCCO2)cc1OC` (stereo not given), the EC50 is > 11 µM (inactive).

Regarding `N/C(=N\N=C/c1ccc(-c2ccc(O)c(C(=O)O)c2)o1)N[N+](=O)[O-]`, the EC50 is > 11 µM (inactive).

Take `CC(C)(C)c1ccc(OCc2ccc(C(=O)Nc3cccnc3)o2)cc1`: the EC50 was > 11 µM (inactive).

As to `CN1CC=C2C(C#N)=C(N)C(C#N)(C#N)C(c3ccncc3)C2C1` (stereo not given), the EC50 is > 11 µM (inactive).

On to `CCCCCCn1c(=O)[nH]c2nc3cc(N)ccc3nc2c1=O`, for which the EC50 was > 11 µM (inactive).

On to `CCN(CC)CCCNC(=O)CCC(=O)NNc1nc2ccccc2c2nc(C)nn12`, for which the EC50 is > 11 µM (inactive).

As for `CCOC(=O)c1c(NC(=O)Nc2ccc(F)cc2)sc2c1CCN(C)C2`, the EC50 was > 11 µM (inactive).

For `O=C(NCC1CCCO1)c1nn2c(C(F)(F)F)cc(-c3cc(Br)cs3)nc2c1Br` (stereo not given), the EC50 was > 11 µM (inactive).

As for `CCOc1cc(C2C(C#N)=C(N)OC(C)=C2C(C)=O)cc(Br)c1O` (stereo not given), the EC50 was > 11 µM (inactive).

On to `CN1Cc2c(c(C#N)c(N)n(C)c2=S)CC1(C)C`, for which the EC50 was > 11 µM (inactive).

Regarding `c1ccc(-c2nnc(-c3ccccn3)nn2)nc1`, the EC50 was > 11 µM (inactive).
